Drawing on patent US12049439B2 (OrsoBio, Inc., priority 2018, dated 2024), this text covers EC50 for twelve molecules.

The structures appear in SMILES notation.

This assay deals with PC-3 cells. In words: PC-3 Oxygen Rate Consumption (OCR) Assay. It is filed as cell-based. The following applies: Homo sapiens, 0.05 h, medium with 2% FBS, OCR at 3-min post-injection normalized to % increase over DMSO-treated cells, concentration for half-maximal OCR increase, read-out: EC50-PC3-OCR-FBS-3min. The protocol: PC-3 Oxygen Rate Consumption (OCR) Assay Procedure:
One day before the assay, PC-3 cells were seeded at 2.5×10^4 cells/160 μL/well in a 96-well XFe96 cell plate, part of a FlexPak containing a cell plate and a cartridge (Agilent, Sunnyvale, CA). The cells were incubated overnight at 37° C. in a 5% CO2 and 90% humidity incubator with F12K culture medium (ThermoFisher Scientific/Invitrogen, Grand Island, NY) containing 10% FBS and 1% penicillin/streptomycin. On the day of the assay, the cells were washed twice with 300 µL/well Medium A [XF assay medium (Agilent) supplemented 10 mM glucose, 1 mM pyruvate, and 2% fetal bovine serum (FBS)], and incubated with 175 µL/well Media A for 1 hr in a 37° C., non-CO2 incubator prior to the measurement of cellular respiration. Compounds of interests were prepared in 1:2 serial dilutions with 100% DMSO and then further diluted into 8× working stock with Media A prior to being loaded to Injection Port A on a XFe96 Analyzer (Agilent). Six replicates were used for each treatment. The cartridge was calibrated in the XFe96 Analyzer 30 minute prior to the measurement of cellular respiration. Basal levels of OCR were measured three times, each using a “3-minute mixing/3-minute measurement” program. The compound effect was measured immediately after compound injection from Injection Port A, and OCR was monitored continuously 10 times, each time using a “1-minute mixing/2-minute measurement” program for a total of 30 minutes post compound injection. The level of OCR at 3-min post-injection was normalized to % increase over DMSO-treated cells. The concentration of compound required to reach the half-maximal OCR increase was defined as EC50 Table 2 contains PC3 OCR EC50 values for the compounds disclosed.
As usually defined, the EC50 is the concentration giving half of the maximal effect. Turning to `CS(=O)(=O)Nc1cc(F)ccc1C(=O)NC12CC(C(F)(F)F)(C1)C2` [Example 1, 4-fluoro-2-(methylsulfonamido)-N-(3-(trifluoromethyl)bicyclo[1.1.1]pentan-1-yl)benzamide], the EC50 is 13100 nM. With `O=C(NC12CC(C(F)(F)F)(C1)C2)c1ccc(F)cc1NS(=O)(=O)C1CC1` [Example 2, 2-(cyclopropanesulfonamido)-4-fluoro-N-(3-(trifluoromethyl)bicyclo[1.1.1]pentan-1-yl)benzamide], the EC50 was found to be 3650 nM. Turning to `CC(C)(C)c1ccc(S(=O)(=O)Nc2cc(F)ccc2C(=O)NC23CC(C(F)(F)F)(C2)C3)cc1` [Example 3, 2-((4-(tert-butyl)phenyl)sulfonamido)-4-fluoro-N-(3-(trifluoromethyl)bicyclo[1.1.1]pentan-1-yl)benzamide], the EC50 worked out at 785 nM. For the molecule `CC(C)(C)c1ccc(S(=O)(=O)Nc2cc(C(F)(F)F)ccc2C(=O)NC23CC(C(F)(F)F)(C2)C3)cc1` [Example 4, 2-((4-(tert-butyl)phenyl)sulfonamido)-4-(trifluoromethyl)-N-(3-(trifluoromethyl)bicyclo[1.1.1]pentan-1-yl)benzamide], the concentration giving a half-maximal response (EC50) stood at 619 nM.

As to `CS(=O)(=O)c1ccc(S(=O)(=O)Nc2cc(F)ccc2C(=O)NC23CC(C(F)(F)F)(C2)C3)cc1` [Example 5, 4-fluoro-2-((4-(methylsulfonyl)phenyl)sulfonamido)-N-(3-(trifluoromethyl)bicyclo[1.1.1]pentan-1-yl)benzamide], the EC50 is 5800 nM. The same measure for `O=C(NC12CC(C(F)(F)F)(C1)C2)c1ccc(C(F)(F)F)cc1NS(=O)(=O)c1ccc(OC(F)(F)F)cc1` [Example 6, 2-((4-(trifluoromethoxy)phenyl)sulfonamido)-4-(trifluoromethyl)-N-(3-(trifluoromethyl)bicyclo[1.1.1]pentan-1-yl)benzamide]: 267 nM; for `CC(C)(C)c1ccc(S(=O)(=O)Nc2cc(C(F)(F)F)ccc2C(=O)NC23CC(C#N)(C2)C3)cc1` [Example 7, 2-((4-(tert-butyl)phenyl)sulfonamido)-N-(3-cyanobicyclo[1.1.1]pentan-1-yl)-4-(trifluoromethyl)benzamide]: 813 nM.

In the case of `CS(=O)(=O)c1ccc(S(=O)(=O)Nc2cc(C(F)(F)F)ccc2C(=O)NC23CC(C(F)(F)F)(C2)C3)cc1` [Example 8, 2-((4-(methylsulfonyl)phenyl)sulfonamido)-4-(trifluoromethyl)-N-(3-(trifluoromethyl)bicyclo[1.1.1]pentan-1-yl)benzamide], the EC50 was found to be 4100 nM.

Take `CS(=O)(=O)c1ccc(S(=O)(=O)Nc2cc(C(F)(F)F)ccc2C(=O)NC23CCC(F)(CC2)CC3)cc1` [Example 9, N-(4-fluorobicyclo[2.2.2]octan-1-yl)-2-((4-(methylsulfonyl)phenyl)sulfonamido)-4-(trifluoromethyl)benzamide]: the EC50 stood at 5560 nM. For `CS(=O)(=O)c1ccc(S(=O)(=O)Nc2cc(C(F)(F)F)ccc2C(=O)NC23CC4CC(CC(C4)C2)C3)cc1` [Example 10, N-((3s,5s,7s)-adamantan-1-yl)-2-((4-(methylsulfonyl)phenyl)sulfonamido)-4-(trifluoromethyl)benzamide], the EC50 came to 1220 nM. In the case of `CS(=O)(=O)c1ccc(S(=O)(=O)Nc2cc(C(F)(F)F)ccc2C(=O)NC23CC(c4ccccc4)(C2)C3)cc1` [Example 11, 2-((4-(methylsulfonyl)phenyl)sulfonamido)-N-(3-phenylbicyclo[1.1.1]pentan-1-yl)-4-(trifluoromethyl)benzamide], the EC50 was 1920 nM.

Regarding `CS(=O)(=O)c1ccc(S(=O)(=O)Nc2cc(F)ccc2C(=O)NC23CC(c4ccccc4)(C2)C3)cc1` [Example 12, 4-fluoro-2-((4-(methylsulfonyl)phenyl)sulfonamido)-N-(3-phenylbicyclo[1.1.1]pentan-1-yl)benzamide], the EC50 was found to be 6880 nM.
